# Tests used:
# [1] = tested on: BaF3-FL KIT D816V or BaF3-FL KIT V560G/D816V cell line; assay: Cell-based assays of c-Kit mutant kinase activity (cell growth, ATPlite); details: at least one of the c-kit cell assays of Example 26
# Procedure, shortened: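 BaF3 cells dependent on full-length human KIT (D816V or V560G/D816V) seeded at 1×10^4 cells/well in RPMI with 10% FBS. Eight-point 1:3 dilutions from 10 μM top final (0.2% DMSO), 3 days at 37° C., 5% CO2. ATPlite luminescence gave IC50.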
# c-kit kinase = c-kit kinase (Homo sapiens (Human), UniProt P10721); assay: c-Kit biochemical assay (AlphaScreen); details: c-kit biochemical inhibitory activity
# Method: Assays for biochemical cell-based activity of c-kit kinase are known in the art, for example, as described in U.S. Pat. Nos. 7,498,342 and 7,846,941, the disclosures of which are hereby incorporated by reference as it relates to such assays. The c-kit (or kinase domain thereof) is an active kinase in AlphaScreen. IC50 values are determined with respect to inhibition of c-Kit kinase activity, where inhibition of phosphorylation of a peptide substrate is measured as a function of compound concentration. Compounds to be tested were dissolved in DMSO to a concentration of 20 mM. These were diluted 30 μl into 120 μl of DMSO (4 mM) and 1 μl was added to an assay plate. These were then serially diluted 1:3 (50 μl to 100 μl DMSO) for a total of 8 points. Plates were prepared such that each kinase reaction is 20 μl in 1× kinase buffer (50 mM HEPES, pH 7.2, 5 mM MgCl2, 5 mM MnCl2, 0.01% NP-40, 0.2% BSA), 5% DMSO and 10 µM ATP. Substrate was 100 nM biotin-(E4Y)3 (Open Source Biotech, Inc.). C-kit kinase was at 0.1 ng per sample. After incubation of the kinase reaction for 1 hour at room temperature, 5 μl of donor beads (Streptavidin coated beads (Perkin Elmer Life Science) final concentration 1 μg/ml) in stop buffer (50 mM EDTA in 1× kinase buffer) was added, the sample was mixed and incubated for 20 minutes at room temperature before adding 5 μl of acceptor beads (PY20 coated beads (Perkin Elmer Life Science) final concentration 1 μg/ml) in stop buffer. The samples were incubated for 60 minutes at room temperature and the signal per well was read on AlphaQuest reader. Phosphorylated substrate results in binding of the PY20 antibody and association of the donor and acceptor beads such that signal correlates with kinase activity. The signal vs. compound concentration was used to determine the IC50.
# Compounds were also tested using a similar assay with a 10-fold higher ATP concentration. For these samples, compounds to be tested were dissolved in DMSO to a concentration of 20 mM. These were diluted 30 μl into 120 μl of DMSO (4 mM) and 1 μl was added to an assay plate. These were then serially diluted 1:3 (50 μl to 100 μl DMSO) for a total of 8 points. Plates were prepared such that each kinase reaction is 20 μl in 1× kinase buffer (25 mM HEPES, pH 7.5, 2 mM MgCl2, 2 mM MnCl2, 0.01% Tween-20, 1 mM DTT, and 0.001% BSA), 5% DMSO and 100 µM ATP. Substrate was 30 nM biotin-(E4Y)10 (Upstate Biotech, Cat#12-440). C-kit kinase was at 1 ng per sample. After incubation of the kinase reaction for 1 hour at room temperature, 5 μl of donor beads (Streptavidin coated beads (Perkin Elmer Life Science) final concentration 10 μg/ml) in stop buffer (25 mM HEPES pH 7.5, 100 mM EDTA, 0.3% BSA) was added, the sample was mixed and incubated for 20 minutes at room temperature before adding 5 μl of acceptor beads (PY20 coated beads (Perkin Elmer Life Science) final concentration 10 μg/ml) in stop buffer. The samples were incubated for 60 minutes at room temperature and the signal per well was read on AlphaQuest or Envision reader (Perkin Elmer Life Science). Phosphorylated substrate results in binding of the PY20 antibody and association of the donor and acceptor beads such that signal correlates with kinase activity. The signal vs. compound concentration was used to determine the IC50.
# The c-kit enzyme used in the above assay was either obtained from Cell Signaling Technology (Cat. #7754) or was prepared as follows: A plasmid encoding kit (DNA and encoded protein sequences shown below) was engineered using common polymerase chain reaction (PCR) methods. Complementary DNA cloned from various human tissues were purchased from Invitrogen, and these were used as substrates in the PCR reactions. Specific custom synthetic oligonucleotide primers were designed to initiate the PCR product, and also to provide the appropriate restriction enzyme cleavage sites for ligation with the plasmids. […]
# Chain of c-kit kinase (P10721 26-976): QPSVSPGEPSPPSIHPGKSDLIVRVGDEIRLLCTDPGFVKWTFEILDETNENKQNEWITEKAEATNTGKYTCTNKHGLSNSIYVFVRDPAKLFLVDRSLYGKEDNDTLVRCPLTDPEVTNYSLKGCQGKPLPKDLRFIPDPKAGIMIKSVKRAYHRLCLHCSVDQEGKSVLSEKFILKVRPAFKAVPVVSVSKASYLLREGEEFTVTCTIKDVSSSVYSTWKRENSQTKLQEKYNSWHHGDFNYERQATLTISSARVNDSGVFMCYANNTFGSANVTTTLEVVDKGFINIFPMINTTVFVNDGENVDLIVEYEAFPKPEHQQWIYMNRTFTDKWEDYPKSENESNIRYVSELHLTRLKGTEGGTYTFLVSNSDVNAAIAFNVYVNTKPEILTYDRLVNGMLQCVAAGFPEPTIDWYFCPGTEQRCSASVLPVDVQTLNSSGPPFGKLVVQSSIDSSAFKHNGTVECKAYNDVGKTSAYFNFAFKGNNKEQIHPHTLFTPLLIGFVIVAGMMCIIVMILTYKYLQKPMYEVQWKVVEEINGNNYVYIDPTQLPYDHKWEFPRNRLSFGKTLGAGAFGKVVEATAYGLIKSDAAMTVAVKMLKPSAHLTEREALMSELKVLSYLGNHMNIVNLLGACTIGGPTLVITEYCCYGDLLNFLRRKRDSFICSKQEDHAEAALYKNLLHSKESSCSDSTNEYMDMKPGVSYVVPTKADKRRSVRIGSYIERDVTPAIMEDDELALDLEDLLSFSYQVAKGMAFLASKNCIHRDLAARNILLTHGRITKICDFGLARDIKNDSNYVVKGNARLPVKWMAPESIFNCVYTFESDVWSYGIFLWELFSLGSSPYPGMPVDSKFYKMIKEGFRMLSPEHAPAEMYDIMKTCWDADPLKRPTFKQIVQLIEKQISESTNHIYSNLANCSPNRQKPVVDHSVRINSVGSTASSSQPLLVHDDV
Compound,IC50 [1],IC50 (c-kit kinase)
"Cc1n[nH]c(C(=O)Nc2cnc3[nH]c(-c4ccnc5c4OCCO5)cc3c2)c1C [P-2179, N-[2-(2,3-dihydro-[1,4]dioxino[2,3-b]pyridin-8-yl)-1H-pyrrolo[2,3-b]pyridin-5-yl]-3,4-dimethyl-H-pyrazole-5-carboxamide]",< 10 µM,1 to 10 µM
"Cc1noc(C)c1C(=O)Nc1cnc2[nH]c(-c3ccccc3)cc2c1 [P-2013, 3,5-dimethyl-N-(2-phenyl-1H-pyrrolo[2,3-b]pyridin-5-yl)isoxazole-4-carboxamide]",< 10 µM,0.0001 to 1 µM
"Cc1cc(C(=O)Nc2cnc3[nH]c(N4CCOCC4)cc3c2)[nH]n1 [P-2058, 3-methyl-N-(2-morpholino-1H-pyrrolo[2,3-b]pyridin-5-yl)-1H-pyrazole-5-carboxamide]",< 10 µM,10 to 200 µM
"Cc1n[nH]c(C(=O)Nc2cnc3[nH]c(C4=CCN(C(=O)N5CCOCC5)CC4)cc3c2)c1Cl [P-2036, 4-chloro-3-methyl-N-[2-[1-(morpholine-4-carbonyl)-3,6-dihydro-2H-pyridin-4-yl]-1H-pyrrolo[2,3-b]pyridin-5-yl]-1H-pyrazole-5-carboxamide]",< 10 µM,0.0001 to 1 µM
"O=C(Nc1cnc2[nH]c(-c3ccccc3)cc2c1)c1cccc2n[nH]cc12 [P-2289, N-(2-phenyl-1H-pyrrolo[2,3-b]pyridin-5-yl)-2H-indazole-4-carboxamide]",< 10 µM,0.0001 to 1 µM
"Cc1cc(C(=O)Nc2cnc3[nH]c(C4=CCN(C(=O)C5CC5)CC4)cc3c2)n[nH]1 [P-2042, N-[2-[1-(cyclopropanecarbonyl)-3,6-dihydro-2H-pyridin-4-yl]-1H-pyrrolo[2,3-b]pyridin-5-yl]-5-methyl-1H-pyrazole-3-carboxamide]",< 10 µM,0.0001 to 1 µM
"Cc1n[nH]c(C(=O)Nc2cnc3[nH]c(-c4cccc(N5CCNCC5)c4)cc3c2)c1C [P-2274, 3,4-dimethyl-N-[2-(3-piperazin-1-ylphenyl)-1H-pyrrolo[2,3-b]pyridin-5-yl]-1H-pyrazole-5-carboxamide]",< 10 µM,0.0001 to 1 µM
"Cc1n[nH]c(C(=O)Nc2cnc3[nH]c(-c4cnn(C5CCNCC5)c4)cc3c2)c1C [P-2048, 3,4-dimethyl-N-[2-[1-(4-piperidyl)pyrazol-4-yl]-1H-pyrrolo[2,3-b]pyridin-5-yl]-1H-pyrazole-5-carboxamide]",< 10 µM,0.0001 to 1 µM
"COc1cncc(-c2cc3cc(NC(=O)c4[nH]nc(C)c4C)cnc3[nH]2)c1 [P-2183, N-[2-(5-methoxy-3-pyridyl)-1H-pyrrolo[2,3-b]pyridin-5-yl]-3,4-dimethyl-1H-pyrazole-5-carboxamide]",< 10 µM,10 to 200 µM
"Cc1n[nH]c(C(=O)Nc2cnc3[nH]c(-c4cnccc4C(N)=O)cc3c2)c1C [P-2272, 3-[5-[(3,4-dimethyl-1H-pyrazole-5-carbonyl)amino]-1H-pyrrolo[2,3-b]pyridin-2-yl]pyridine-4-carboxamide]",< 10 µM,10 to 200 µM
"Cc1n[nH]nc1C(=O)Nc1cnc2[nH]c(-c3ccc(F)cc3)cc2c1 [P-2037, N-[2-(4-fluorophenyl)-1H-pyrrolo[2,3-b]pyridin-5-yl]-5-methyl-2H-triazole-4-carboxamide]",< 10 µM,1 to 10 µM
"Cc1n[nH]c(C(=O)Nc2cnc3[nH]c(-c4ccc(F)cc4OC(F)F)cc3c2)c1C [P-2268, N-[2-[2-(difluoromethoxy)-4-fluoro-phenyl]-1H-pyrrolo[2,3-b]pyridin-5-yl]-3,4-dimethyl-1H-pyrazole-5-carboxamide]",< 10 µM,1 to 10 µM
"Cc1n[nH]c(C(=O)Nc2cnc3[nH]c(-c4ccc(F)cc4)cc3c2)c1C [P-2024, N-[2-(4-fluorophenyl)-1H-pyrrolo[2,3-b]pyridin-5-yl]-3,4-dimethyl-1H-pyrazole-5-carboxamide]",< 10 µM,10 to 200 µM
"CCc1ccc(-c2cc3cc(NC(=O)c4[nH]nc(C)c4C)cnc3[nH]2)cn1 [P-2178, N-[2-(6-ethyl-3-pyridyl)-1H-pyrrolo[2,3-b]pyridin-5-yl]-3,4-dimethyl-1H-pyrazole-5-carboxamide]",< 10 µM,10 to 200 µM
"Cc1n[nH]c(C(=O)Nc2ccc(Nc3ccccc3)nc2)c1C [P-2045, N-(6-anilino-3-pyridyl)-3,4-dimethyl-1H-pyrazole-5-carboxamide]",< 10 µM,10 to 200 µM
"Cc1n[nH]c(C(=O)Nc2cnc3[nH]nc(C)c3c2)c1C [P-2040, 3,4-dimethyl-N-(3-methyl-1H-pyrazolo[3,4-b]pyridin-5-yl)-1H-pyrazole-5-carboxamide]",< 10 µM,10 to 200 µM
"CCn1nccc1S(=O)(=O)Nc1cnc2[nH]c(-c3ccc(F)cc3)cc2c1 [P-2030, 2-ethyl-N-[2-(4-fluorophenyl)-1H-pyrrolo[2,3-b]pyridin-5-yl]pyrazole-3-sulfonamide]",< 10 µM,1 to 10 µM
"O=C(Nc1cnc2[nH]c(-c3ccc(F)cc3)cc2c1)c1n[nH]c2ccccc12 [P-2046, N-[2-(4-fluorophenyl)-1H-pyrrolo[2,3-b]pyridin-5-yl]-1H-indazole-3-carboxamide]",< 10 µM,10 to 200 µM
"Cc1n[nH]c(C(=O)Nc2cnc3[nH]c(-c4ccc(C5(C(=O)O)CC5)cc4)cc3c2)c1C [P-2294, 1-[4-[5-[(3,4-dimethyl-1H-pyrazole-5-carbonyl)amino]-1H-pyrrolo[2,3-b]pyridin-2-yl]phenyl]cyclopropanecarboxylic acid]",< 10 µM,0.0001 to 1 µM
"Cc1n[nH]c(C(=O)Nc2cnc3[nH]c(-c4ccc(C(=O)O)c(F)c4)cc3c2)c1C [P-2292, 4-[5-[(3,4-dimethyl-1H-pyrazole-5-carbonyl)amino]-1H-pyrrolo[2,3-b]pyridin-2-yl]-2-fluoro-benzoic acid]",< 10 µM,0.0001 to 1 µM
"[2H]c1c([2H])c([2H])c(-c2cc3cc(NC(=O)c4[nH]nc(C)c4C)cnc3[nH]2)c([2H])c1[2H] [P-2164, 3,4-dimethyl-N-[2-(2,3,4,5,6-pentadeuteriophenyl)-1H-pyrrolo[2,3-b]pyridin-5-yl]-1H-pyrazole-5-carboxamide]",< 10 µM,1 to 10 µM
"Cc1cncc(-c2cc3cc(NC(=O)c4[nH]nc(C)c4C)cnc3[nH]2)c1 [P-2184, 3,4-dimethyl-N-[2-(5-methyl-3-pyridyl)-1H-pyrrolo[2,3-b]pyridin-5-yl]-1H-pyrazole-5-carboxamide]",< 10 µM,1 to 10 µM
"Cc1nn(C2CN(C(=O)OC(C)(C)C)C2)cc1-c1cc2cc(NC(=O)c3[nH]nc(C)c3C)cnc2[nH]1 [P-2285, tert-butyl 3-[4-[5-[(3,4-dimethyl-1H-pyrazole-5-carbonyl)amino]-1H-pyrrolo[2,3-b]pyridin-2-yl]-3-methyl-pyrazol-1-yl]azetidine-1-carboxylate]",< 10 µM,0.0001 to 1 µM
"Cc1nn(C2COC2)cc1-c1cc2cc(NC(=O)c3[nH]nc(C)c3C)cnc2[nH]1 [P-2168, 3,4-dimethyl-N-[2-[3-methyl-1-(oxetan-3-yl)pyrazol-4-yl]-1H-pyrrolo[2,3-b]pyridin-5-yl]-1H-pyrazole-5-carboxamide]",< 10 µM,0.0001 to 1 µM

# Source: patent US10301280B2 (Plexxikon Inc., priority 2012, dated 2019)
